Test results from US10265294B2, “Compositions and methods for treating epithelial cancer” (YALE UNIVERSITY, priority 2016, dated 2019).

Assays:
[1] = system: OCC1 (CD44-/MyD88- ovarian cancer cells); assay: IC50 against chemosensitive ovarian cancer cells OCC1; assay type: cell-based, human; conditions: read-out: IC50 (percentage of viable cells)
Protocol: CD44+/MyD88+ ovarian cancer stem cell clones (OCSC1 and OCSC2) and CD44−/MyD88− ovarian cancer cells (OCC1 and OCC2) were isolated from either tumor tissue or ascites obtained from patients diagnosed with stage III/IV serous ovarian cancer and propagated (Alvero, et al., 2009, Cell Cycle 8:158-166; Chefetz, et al., 2013, Cell Cycle 12:511-521). The epithelial nature of the isolated cells was determined by immunostaining for Ck18. Purity of the cultures based on CD44 expression by flow cytometry and chemoresistance were routinely tested. […]
(§1) Effect of each compound on cell morphology, growth, and viability was assessed using a kinetic live cell imaging system (Incucyte, Essen Bioscience). Proliferation was calculated as previously described (Alvero, et al., 2011, Mol. Cancer Ther. 10:1385-1393) using metrics from either confluence or fluorescent count from nuclear-restricted RFP or GFP. Cell death was quantified; similarly CELLTOX® Green Cytotoxicity Assay (Promega, Madison, Wis.). IC50 was calculated as described using GraphPad Prism (GraphPad Software Inc., LaJolla, Calif.).
Once the efficacy of TRX-E-002-1 against chemoresistant OCSC was established, its activity against two clones of chemosensitive ovarian cancer cells (OCC1 and OCC2) was determined.

[2] = system: c-Jun; assay: Phosphokinase array / Western blot for phosphorylated and total c-Jun in OCSCs; assay type: cell-based, human
Protocol: (§2) SDS-PAGE and Western blots were performed using 20 μg of total protein lysate as described in Kamsteeg, et al., 2003, Oncogene 22:2611-2620. Antibodies used were: mouse anti-phospho ERK (Santa Cruz Biotechnology, Inc., Dallas, Tex.); rabbit anti-phospho c-Jun, rabbit anti c-Jun, rabbit anti-ERK, rabbit anti-cleaved caspase 3 all from Cell Signaling Technology, Danvers, Mass.; and mouse anti-GAPDH (Sigma-Aldrich).
In order to elucidate the early pathways responsible for the sustained cytotoxic effect observed with TRX-E-002-1, a phosphokinase array was performed. The phosphokinase array detected relative phosphorylation levels of 43 different kinases involved in major signal transduction pathways.
The western blot results also validated the decrease in p-ERK in cells treated with TRX-E-002-1. […] The effect on the phosphorylation status of the kinases (upregulation of p-cJun and downregulation of p-ERK) was observed as early as 2 h post-treatment and maintained up to 24 h (FIG. 4A). The phosphorylation levels of c-Jun and ERK correlate with the differential ability of the two doses of TRX-E-002-1 to induce a sustained cytotoxic effect. […] This correlates with the ability of this dose of TRX-E-002-1 to maintain the upregulation of p-cJun and downregulation of p-ERK even when the compound is removed (FIG. 4B). […]

[3] = system: co-culture of RFP-labeled OCSC2 and GFP-labeled OCC2; assay: In vitro co-culture model 50% RFP-OCSC2 / 50% GFP-OCC2; assay type: cell-based; conditions: co-culture 50/50; TRX-E-002-1 0.12 μM, Cisplatin 20 μM
Protocol: CD44+/MyD88+ ovarian cancer stem cell clones (OCSC1 and OCSC2) and CD44−/MyD88− ovarian cancer cells (OCC1 and OCC2) were isolated from either tumor tissue or ascites obtained from patients diagnosed with stage III/IV serous ovarian cancer and propagated (Alvero, et al., 2009, Cell Cycle 8:158-166; Chefetz, et al., 2013, Cell Cycle 12:511-521). The epithelial nature of the isolated cells was determined by immunostaining for Ck18. Purity of the cultures based on CD44 expression by flow cytometry and chemoresistance were routinely tested. Stable expression of nuclear-restricted red fluorescent (in OCSCs) or green fluorescent proteins (in OCCs) was performed by transduction using NUCLIGHT® Red or Green Lentivirus Reagent (Essen Bioscience, Ann Arbor, Mich.). Spheroids were formed from OCSCs by culturing in ultra-low attachment multi-well plates (Corning, Inc., Corning, N.Y.).
as §1
Without wishing to be limited by any theory, response to chemotherapy may be modified by cross-talk among different cancer cell types within the tumor. Thus, to mimic the heterogeneity of ovarian tumors an in vitro co-culture model consisting of RFP-labeled chemoresistant OCSC2 and GFP-labeled chemosensitive OCC2 was used. The co-cultures, which are comprised of 50% RFP-OCSC2 and 50% GFP-OCC2 at time of treatment, were exposed to TRX-E-002-1, cisplatin, or the combination of both. Since GFP-OCC2 has faster doubling time than RFP-OCSC2, it overtook the control co-cultures by the end of the experiment and thus the control co-cultures are mainly comprised of GFP-OCC2 by the 24 h time-point (FIG. 2B).

[4] = system: cleaved/active caspase-3; assay: Western blot for cleaved caspase-3 in OCSC transfected with scramble or c-Jun siRNA; assay type: cell-based, human; conditions: 2.45 μM for 2 hours then recovery
Protocol: as §2
To determine the requirement for c-Jun activation in TRX-E-002-1-induced apoptosis, siRNA was used to knock-down c-Jun in chemoresistant OCSC. […] This upregulation was maintained, even when treatment was removed and cells were allowed to recover (FIG. 5C).

[5] = system: i.p. tumors of mCherry+OCSC1-F2 ovarian cancer cells; assay: Intra-peritoneal ovarian cancer xenograft, primary disease dose response; assay type: in vivo, athymic nude mice
Protocol: The Yale University Institutional Animal Care and Use Committee approved all in vivo studies described. Intra-peritoneal tumors were established in athymic nude mice using 4×10^6 mCherry+OCSC1-F2 ovarian cancer cells (Craveiro, et al., 2013, Cancer Med. 2:751-762). […] Establishment of i.p. tumors was confirmed by live imaging (In-Vivo FX PRO, Bruker Corp., Billerica, Mass.) prior to treatment. TRX-E-002-1 was prepared in 20% Captisol or Dexsolve and administered daily at 50 mg/kg or 100 mg/kg. Paclitaxel was given at 12 mg/kg q3d and Cisplatin at 5 mg/kg weekly. All treatments were given i.p. Tumor growth was monitored q3d by live imaging and response to treatment was assessed using ROI area.
An intra-peritoneal (i.p.) recurrent ovarian cancer xenograft model established using ovarian cancer cells stably expressing mCherry fluorescence has been established. This allows the detection of i.p. tumors and real-time measurement of response during the course of treatment. This model recapitulates the clinical profile typically seen in patients with ovarian cancer and helps one answer three questions: (1) in vivo activity of TRX-E-002-1 against primary disease; (2) ability of TRX-E-002-1 given in combination with chemotherapy to prevent/delay recurrence; and (3) ability of TRX-E-002-1 given as maintenance after chemotherapy to prevent/delay recurrence.
To determine activity against primary disease as well as to determine the maximum tolerated dose (MTD), a dose response study was performed. […] Animals however recovered from the distension upon cessation of treatment. […] Thus, the MTD was established at daily 100 mg/kg i.p. and this dose was employed for the succeeding studies employing combination treatment.

## COc1cc(C2COc3c(ccc(O)c3C)C2c2ccc(O)cc2)cc(OC)c1O (single isomer, unassigned) [TRX-E-002-1]
[1]
  IC50: 68 nM
[2]; Western blot time course
  total c-Jun: time-dependent increase
[2]; compared to controls, from 2 h up to 24 h post-treatment
  levels of phosphorylated c-Jun (p-c-Jun): higher levels
[3]
  number of GFP+ cells (GFP-OCC2): markedly reduced
  number of mCherry+ cells (RFP-OCSC2): markedly reduced
[4]; c-Jun knocked-down by siRNA
  cleaved/active caspase-3: not detectable
[4]; scramble siRNA
  cleaved/active caspase-3: appearance of cleaved/active caspase-3
[5]; 50 mg/kg daily i.p., starting at day 14
  tumor burden compared to vehicle control: significant reduction
[5]; 100 mg/kg daily i.p.
  residual disease at completion of the treatment: very little residual disease
[5]; 100 mg/kg daily i.p., Western blot
  p-c-Jun and total c-Jun in residual tumors: upregulation
[5]; 100 mg/kg daily i.p., starting at day 10
  tumor burden compared to vehicle control: significant reduction
[5]; 150 mg/kg i.p. three times weekly, by the 10th dose
  tumor burden: significant decrease
